# Patent publication US12077503B2, “Substituted cyclic amides and their use as herbicides” (FMC CORPORATION, priority 2015, dated 2024)
# Experiments:
# Format in all cases: in vivo
# [1] = test system: barnyardgrass (Echinochloa crus-galli); experiment: Test C flooded paddy test; conditions: Flood; for Plant response rating (scale of 0 to 100), Barnyardgrass: 0 is no effect, 100 is complete control
# Summary of the method: (§1)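 Compound was added directly to paddy water held 3 cm above the soil, with plants at the 2-leaf stage. Injury was scored visually versus untreated controls after 13–15 d greenhouse growth, using a 0–100 scale where 100 means complete control.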
# [2] = test system: ducksalad (Heteranthera limosa); experiment: Test C flooded paddy test; conditions: Flood; for Plant response rating (scale of 0 to 100), Ducksalad: 0 is no effect, 100 is complete control
# Summary of the method: as §1
# rice (Oryza sativa) = experiment: Test C flooded paddy test; conditions: Flood; for Plant response rating (scale of 0 to 100), Rice: 0 is no effect, 100 is complete control
# Summary of the method: as §1
# [3] = test system: sedge, umbrella (small-flower umbrella sedge, Cyperus difformis); experiment: Test C flooded paddy test; conditions: Flood; for Plant response rating (scale of 0 to 100), Sedge, Umbrella: 0 is no effect, 100 is complete control
# Summary of the method: as §1
# corn (Zea mays) [4] = experiment: Test G Pre-Emergence Protocol; conditions: evaluated after 13 days
# Method: (§2) Seeds of corn (Zea mays), giant foxtail (Setaria faberi), barnyardgrass (Echinochloa crus-galli), ivy-leaved morning glory (Ipomoea hederacea), redroot pigweed (Amaranthus retroflexus) and velvetleaf (Abutilon theophrasti) were sown in standard soil in pots. After cultivation for one day under controlled conditions in a glasshouse (at 24/16° C., day/night; 14 hours light; 65% humidity), the plants were sprayed with an aqueous spray solution derived from the formulation of the technical active ingredient in acetone/water (50:50) solution containing 0.5% Tween 20 (polyoxyethylene sorbitan monolaurate, CAS RN 9005-64-5) to give a final dose of 15.625, 62.5 or 250 g/ha of test compound.
# (§3) The test plants were then grown on under controlled conditions in a glasshouse (at 24/16° C., day/night; 14 hours light; 65% humidity) and watered twice daily. After 13 days the test was evaluated (100=total damage to plant; 0=no damage to plant). A dash (-) means no test result.
# [5] = test system: ivy-leaved morning glory (Ipomoea hederacea); experiment: Test G Pre-Emergence Protocol; conditions: evaluated after 13 days
# Method: as §2, §3
# [6] = test system: velvetleaf (Abutilon theophrasti); experiment: Test G Pre-Emergence Protocol; conditions: evaluated after 13 days
# Method: as §2, §3
# [7] = test system: barnyardgrass (Echinochloa crus-galli); experiment: Test G Post-Emergence Protocol
# Method: as §2, with “8 days” for “one day”
# as §3
# corn (Zea mays) [8] = experiment: Test G Post-Emergence Protocol
# Method: as §2, with “8 days” for “one day”
# as §3
# [9] = test system: giant foxtail (Setaria faberi); experiment: Test G Post-Emergence Protocol
# Method: as §2, with “8 days” for “one day”
# as §3
# [10] = test system: ivy-leaved morning glory (Ipomoea hederacea); experiment: Test G Post-Emergence Protocol
# Method: as §2, with “8 days” for “one day”
# as §3
# [11] = test system: redroot pigweed (Amaranthus retroflexus); experiment: Test G Post-Emergence Protocol
# Method: as §2, with “8 days” for “one day”
# as §3
# [12] = test system: velvetleaf (Abutilon theophrasti); experiment: Test G Post-Emergence Protocol
# Method: as §2, with “8 days” for “one day”
# as §3
# [13] = 31 g ai/ha, scale 0 to 100 (0 no effect, 100 complete control), 13 to 15 d
# [14] = 62.5 g ai/ha, 100=total damage to plant, 0=no damage to plant
# [15] = 15.625 g ai/ha, evaluated after 13 days (100=total damage to plant; 0=no damage to plant)
# [16] = 62.5 g ai/ha, evaluated after 13 days
# [17] = 250 g ai/ha, evaluated after 13 days
smiles,measurement,setting,value
O=C1NCC(c2cccc(OC(F)(F)C(F)F)c2)C1C(=O)Nc1cccc(F)c1F (racemic) [Compound 697],"Plant response rating, Barnyardgrass",[1]; [13],0
same,"Plant response rating (scale of 0 to 100), Barnyardgrass",[1]; 62 g ai/ha,30
same,"Plant response rating (scale of 0 to 100), Barnyardgrass",[1]; 125 g ai/ha,45
same,"Plant response rating (scale of 0 to 100), Barnyardgrass",[1]; 250 g ai/ha,45
same,"Plant response rating, Ducksalad",[2]; [13],40
same,"Plant response rating (scale of 0 to 100), Ducksalad",[2]; 62 g ai/ha,40
same,"Plant response rating (scale of 0 to 100), Ducksalad",[2]; 125 g ai/ha,60
same,"Plant response rating (scale of 0 to 100), Ducksalad",[2]; 250 g ai/ha,100
same,"Plant response rating, Rice",rice (Oryza sativa); [13],0
same,"Plant response rating (scale of 0 to 100), Rice",rice (Oryza sativa); 62 g ai/ha,0
same,"Plant response rating (scale of 0 to 100), Rice",rice (Oryza sativa); 125 g ai/ha,50
same,"Plant response rating (scale of 0 to 100), Rice",rice (Oryza sativa); 250 g ai/ha,70
same,"Plant response rating, Sedge, Umbrella",[3]; [13],0
same,"Plant response rating (scale of 0 to 100), Sedge, Umbrella",[3]; 62 g ai/ha,0
same,"Plant response rating (scale of 0 to 100), Sedge, Umbrella",[3]; 125 g ai/ha,0
same,"Plant response rating (scale of 0 to 100), Sedge, Umbrella",[3]; 250 g ai/ha,0
CN1C[C@H](c2cccc(C(F)(F)F)c2)[C@@H](C(=O)Nc2cccnc2F)C1=O [Compound 1397],Corn damage rating (100=total damage to plant; 0=no damage to plant),corn (Zea mays) [4]; 15.625 g ai/ha,80
same,Corn damage rating (100=total damage to plant; 0=no damage to plant),corn (Zea mays) [4]; 250 g ai/ha,90
same,plant injury at 62.5 g/ha,"corn (Zea mays) [4]; Zea mays, pre-emergence, 312 h, 62.5 g ai/ha, 100=total damage to plant, 0=no damage to plant, read-out: plant damage rating, Corn",80%
same,"Morningglory, Ivy-leaved damage rating (100=total damage to plant; 0=no damage to plant)",[5]; 250 g ai/ha,80
same,pest or weed control at 15.625 g/ha,"[5]; Ipomoea, pre-emergence, 312 h, 15.625 g ai/ha, read-out: Morning-glory, Ivy-leaved damage rating (100=total damage to plant; 0=no damage to plant)",60%
same,pest or weed control at 62.5 g/ha,"[5]; Ipomoea, pre-emergence, 312 h, 62.5 g ai/ha, 100=total damage to plant, 0=no damage to plant, read-out: plant damage rating, Morningglory, Ivy-leaved",70%
same,Velvetleaf damage rating (100=total damage to plant; 0=no damage to plant),[6]; 15.625 g ai/ha,0
same,Velvetleaf damage rating (100=total damage to plant; 0=no damage to plant),[6]; 250 g ai/ha,70
same,pest or weed control at 62.5 g/ha,"[6]; Abutilon theophrasti, pre-emergence, 312 h, 62.5 g ai/ha, 100=total damage to plant, 0=no damage to plant, read-out: plant damage rating, Velvetleaf",10%
same,pest or weed control at 15.625 g/ha,"[7]; Echinochloa crus-galli, post-emergence, 312 h, 15.625 g ai/ha, evaluated after 13 days (100=total damage to plant; 0=no damage to plant), read-out: Barnyardgrass damage rating",80%
same,pest or weed control at 62.5 g/ha,"[7]; Echinochloa crus-galli, post-emergence, 312 h, 62.5 g ai/ha, evaluated after 13 days, read-out: Barnyardgrass damage rating (100=total damage to plant; 0=no damage to plant)",80%
same,pest or weed control at 250 g/ha,"[7]; Echinochloa crus-galli, post-emergence, 312 h, 250 g ai/ha, evaluated after 13 days, read-out: damage to plant, Barnyardgrass (100=total damage to plant; 0=no damage to plant)",80%
same,plant injury at 15.625 g/ha,"corn (Zea mays) [8]; Zea mays, post-emergence, 312 h, 15.625 g ai/ha, evaluated after 13 days (100=total damage to plant; 0=no damage to plant), read-out: Corn damage rating",80%
same,plant injury at 62.5 g/ha,"corn (Zea mays) [8]; Zea mays, post-emergence, 312 h, 62.5 g ai/ha, evaluated after 13 days, read-out: Corn damage rating (100=total damage to plant; 0=no damage to plant)",80%
same,plant injury at 250 g/ha,"corn (Zea mays) [8]; Zea mays, post-emergence, 312 h, 250 g ai/ha, evaluated after 13 days, read-out: damage to plant, Corn (100=total damage to plant; 0=no damage to plant)",80%
same,pest or weed control at 15.625 g/ha,"[9]; Setaria faberi, post-emergence, 312 h, 15.625 g ai/ha, evaluated after 13 days (100=total damage to plant; 0=no damage to plant), read-out: Foxtail, Giant damage rating",80%
same,pest or weed control at 62.5 g/ha,"[9]; Setaria faberi, post-emergence, 312 h, 62.5 g ai/ha, evaluated after 13 days, read-out: Foxtail, Giant damage rating (100=total damage to plant; 0=no damage to plant)",80%
same,pest or weed control at 250 g/ha,"[9]; Setaria faberi, post-emergence, 312 h, 250 g ai/ha, evaluated after 13 days, read-out: damage to plant, Foxtail, Giant (100=total damage to plant; 0=no damage to plant)",80%
same,pest or weed control at 15.625 g/ha,"[10]; Ipomoea, post-emergence, 312 h, 15.625 g ai/ha, evaluated after 13 days (100=total damage to plant; 0=no damage to plant), read-out: Morningglory, Ivy-leaved damage rating",60%
same,pest or weed control at 62.5 g/ha,"[10]; Ipomoea, post-emergence, 312 h, 62.5 g ai/ha, evaluated after 13 days, read-out: Morningglory, Ivy-leaved damage rating (100=total damage to plant; 0=no damage to plant)",60%
same,pest or weed control at 250 g/ha,"[10]; Ipomoea, post-emergence, 312 h, 250 g ai/ha, evaluated after 13 days, read-out: damage to plant, Morningglory, Ivy-leaved (100=total damage to plant; 0=no damage to plant)",70%
same,pest or weed control at 15.625 g/ha,"[11]; Amaranthus retroflexus, post-emergence, 312 h, 15.625 g ai/ha, evaluated after 13 days (100=total damage to plant; 0=no damage to plant), read-out: Pigweed, Redroot damage rating",0%
same,pest or weed control at 62.5 g/ha,"[11]; Amaranthus retroflexus, post-emergence, 312 h, 62.5 g ai/ha, evaluated after 13 days, read-out: Pigweed, Redroot damage rating (100=total damage to plant; 0=no damage to plant)",30%
same,pest or weed control at 250 g/ha,"[11]; Amaranthus retroflexus, post-emergence, 312 h, 250 g ai/ha, evaluated after 13 days, read-out: damage to plant, Pigweed, Redroot (100=total damage to plant; 0=no damage to plant)",60%
same,pest or weed control at 15.625 g/ha,"[12]; Abutilon theophrasti, post-emergence, 312 h, 15.625 g ai/ha, evaluated after 13 days (100=total damage to plant; 0=no damage to plant), read-out: Velvetleaf damage rating",0%
same,pest or weed control at 62.5 g/ha,"[12]; Abutilon theophrasti, post-emergence, 312 h, 62.5 g ai/ha, evaluated after 13 days, read-out: Velvetleaf damage rating (100=total damage to plant; 0=no damage to plant)",10%
same,pest or weed control at 250 g/ha,"[12]; Abutilon theophrasti, post-emergence, 312 h, 250 g ai/ha, evaluated after 13 days, read-out: damage to plant, Velvetleaf (100=total damage to plant; 0=no damage to plant)",40%
CN1C[C@H](c2ccc(C(F)(F)F)cc2)[C@@H](C(=O)Nc2cccc(F)n2)C1=O [Compound 1400],Corn damage rating (100=total damage to plant; 0=no damage to plant),corn (Zea mays) [4]; 15.625 g ai/ha,20
same,"plant damage rating, Corn",corn (Zea mays) [4]; [14],40
same,Corn damage rating (100=total damage to plant; 0=no damage to plant),corn (Zea mays) [4]; 250 g ai/ha,60
same,"Morning-glory, Ivy-leaved damage rating (100=total damage to plant; 0=no damage to plant)",[5]; 15.625 g ai/ha,0
same,"plant damage rating, Morningglory, Ivy-leaved",[5]; [14],0
same,Velvetleaf damage rating (100=total damage to plant; 0=no damage to plant),[6]; 15.625 g ai/ha,10
same,"plant damage rating, Velvetleaf",[6]; [14],10
same,Velvetleaf damage rating (100=total damage to plant; 0=no damage to plant),[6]; 250 g ai/ha,60
same,Barnyardgrass damage rating,[7]; [15],50
same,Barnyardgrass damage rating (100=total damage to plant; 0=no damage to plant),[7]; [16],70
same,"damage to plant, Barnyardgrass (100=total damage to plant; 0=no damage to plant)",[7]; [17],70
same,Corn damage rating,corn (Zea mays) [8]; [15],10
same,Corn damage rating (100=total damage to plant; 0=no damage to plant),corn (Zea mays) [8]; [16],20
same,"damage to plant, Corn (100=total damage to plant; 0=no damage to plant)",corn (Zea mays) [8]; [17],60
same,"Foxtail, Giant damage rating",[9]; [15],60
same,"Foxtail, Giant damage rating (100=total damage to plant; 0=no damage to plant)",[9]; [16],70
same,"damage to plant, Foxtail, Giant (100=total damage to plant; 0=no damage to plant)",[9]; [17],70
same,"Morningglory, Ivy-leaved damage rating",[10]; [15],0
same,"Morningglory, Ivy-leaved damage rating (100=total damage to plant; 0=no damage to plant)",[10]; [16],0
same,"damage to plant, Morningglory, Ivy-leaved (100=total damage to plant; 0=no damage to plant)",[10]; [17],0
same,"Pigweed, Redroot damage rating",[11]; [15],20
same,"Pigweed, Redroot damage rating (100=total damage to plant; 0=no damage to plant)",[11]; [16],50
same,"damage to plant, Pigweed, Redroot (100=total damage to plant; 0=no damage to plant)",[11]; [17],60
same,Velvetleaf damage rating,[12]; [15],10
same,Velvetleaf damage rating (100=total damage to plant; 0=no damage to plant),[12]; [16],10
same,"damage to plant, Velvetleaf (100=total damage to plant; 0=no damage to plant)",[12]; [17],30
